The values below come from ChEMBL document CHEMBL3769303, “Discovery of membrane active benzimidazole quinolones-based topoisomerase inhibitors as potential DNA-binding antimicrobial agents” (Eur J Med Chem, 2016).

Molecules are shown by their SMILES. ≈ marks a conversion by molar mass, not a printed value.

For orientation: MIC means the least concentration at which growth counts as inhibited. Higher therefore signals a need for much substance. What is called MIC80 is an inhibitory concentration at the 80% level, which refers to growth in some studies and to a panel of isolates in others. Lower therefore signals higher susceptibility.

One assay has as its system Salmonella enterica. Kind of assay: Antibacterial activity against Salmonella enterica ATCC 14028 by micro broth dilution method. Format: functional.
Settings: not given
In general terms: Broth dilution looks for growth in wells or tubes with falling amounts of substance.
Consider `CCCCCCn1c(CN2CCN(c3cc4c(cc3F)c(=O)c(C(=O)O)cn4CC)CC2)nc2ccccc21`, for which the MIC came to 8 µg/mL (≈ 15 µM).
Compound `NC1CCN(c2c(F)cc3c(=O)c(C(=O)O)cn(C4CC4)c3c2Cl)C1` (stereo not drawn) [CLINAFLOXACIN] came in with an MIC of 0.25 µg/mL (≈ 0.683 µM).
Still for that read-out and setting: in the case of `O=C(O)c1cn(C2CC2)c2cc(N3CCNCC3)c(F)cc2c1=O` [CIPROFLOXACIN] it was 1 µg/mL (≈ 3.02 µM).

Tested on in a further assay: not listed separately
Briefly: Antibacterial activity against Bacillus proteus ATCC 13315 by micro broth dilution method. Format: functional.
Settings: not given
`CCCCCCn1c(CN2CCN(c3cc4c(cc3F)c(=O)c(C(=O)O)cn4CC)CC2)nc2ccccc21` gave an MIC of 4 µg/mL (≈ 7.5 µM).
Same read-out and setting: in the case of `NC1CCN(c2c(F)cc3c(=O)c(C(=O)O)cn(C4CC4)c3c2Cl)C1` (stereo not drawn) [CLINAFLOXACIN] it was 0.5 µg/mL (≈ 1.37 µM); in that of `O=C(O)c1cn(C2CC2)c2cc(N3CCNCC3)c(F)cc2c1=O` [CIPROFLOXACIN], 2 µg/mL (≈ 6.04 µM).

In a further assay the test system is Escherichia coli. Briefly: Antibacterial activity against Escherichia coli JM109 by micro broth dilution method. Format: functional.
Settings: not given
In turn, `CCCCCCn1c(CN2CCN(c3cc4c(cc3F)c(=O)c(C(=O)O)cn4CC)CC2)nc2ccccc21` returned an MIC of 64 µg/mL (≈ 120 µM).
On the same count and under the same terms, the figure for `NC1CCN(c2c(F)cc3c(=O)c(C(=O)O)cn(C4CC4)c3c2Cl)C1` (stereo not drawn) [CLINAFLOXACIN] is 0.5 µg/mL (≈ 1.37 µM).

Another assay concerns Bacillus spizizenii. Kind of assay: Antibacterial activity against Bacillus subtilis ATCC 6633 by micro broth dilution method. In kind it is functional.
Settings: not given
The compound `CCCCCCn1c(CN2CCN(c3cc4c(cc3F)c(=O)c(C(=O)O)cn4CC)CC2)nc2ccccc21` had an MIC of 16 µg/mL (≈ 30 µM).
On the same count and under the same terms, the figure for `NC1CCN(c2c(F)cc3c(=O)c(C(=O)O)cn(C4CC4)c3c2Cl)C1` (stereo not drawn) [CLINAFLOXACIN] is 0.5 µg/mL (≈ 1.37 µM); for `O=C(O)c1cn(C2CC2)c2cc(N3CCNCC3)c(F)cc2c1=O` [CIPROFLOXACIN] it is 2 µg/mL (≈ 6.04 µM).

Tested on in a further assay: not listed separately
Briefly: Antifungal activity against Candida mycoderma ATCC 9888 after 24 hrs by micro broth dilution method. Format: functional. The note with it: Candida vini.
For the compound `CCCCCCn1c(CN2CCN(c3cc4c(cc3F)c(=O)c(C(=O)O)cn4CC)CC2)nc2ccccc21`, the MIC80 was 8 µg/mL (≈ 15 µM).
Still for that read-out and setting: the figure for `OC(Cn1cncn1)(Cn1cncn1)c1ccc(F)cc1F` [FLUCONAZOLE] is 4 µg/mL (≈ 13.1 µM).

The subject of the next assay is Cyberlindnera jadinii. Briefly: Antifungal activity against Candida utilis ATCC 9950 after 24 hrs by micro broth dilution method. In kind it is functional. Conditions: Williopsis jadinii, ATCC 9950, 24 h.
Turning to `CCCCCCn1c(CN2CCN(c3cc4c(cc3F)c(=O)c(C(=O)O)cn4CC)CC2)nc2ccccc21`, the MIC80 is 32 µg/mL (≈ 60 µM).
Take `OC(Cn1cncn1)(Cn1cncn1)c1ccc(F)cc1F` [FLUCONAZOLE]: the MIC80 was found to be 8 µg/mL (≈ 26.1 µM).

The test system of the next assay is Staphylococcus aureus. Briefly: Antibacterial activity against Staphylococcus aureus ATCC 25923 by micro broth dilution method. In kind it is functional.
Settings: not given
Compound `CCCCCCn1c(CN2CCN(c3cc4c(cc3F)c(=O)c(C(=O)O)cn4CC)CC2)nc2ccccc21` had an MIC of 256 µg/mL (≈ 480 µM).
On the same count and under the same terms, the figure for `NC1CCN(c2c(F)cc3c(=O)c(C(=O)O)cn(C4CC4)c3c2Cl)C1` (stereo not drawn) [CLINAFLOXACIN] is 0.5 µg/mL (≈ 1.37 µM).
For the compound `O=C(O)c1cn(C2CC2)c2cc(N3CCNCC3)c(F)cc2c1=O` [CIPROFLOXACIN], inhibition of growth (MIC) required 0.5 µg/mL (≈ 1.51 µM).

For a further assay, the system named is Shigella dysenteriae. Kind of assay: Antibacterial activity against Shigella dysenteriae by micro broth dilution method. In kind it is functional.
Settings: not given
Compound `CCCCCCn1c(CN2CCN(c3cc4c(cc3F)c(=O)c(C(=O)O)cn4CC)CC2)nc2ccccc21` displayed an MIC of 32 µg/mL (≈ 60 µM).
The same measure, in the same setting: the figure for `NC1CCN(c2c(F)cc3c(=O)c(C(=O)O)cn(C4CC4)c3c2Cl)C1` (stereo not drawn) [CLINAFLOXACIN] is 0.5 µg/mL (≈ 1.37 µM); for `O=C(O)c1cn(C2CC2)c2cc(N3CCNCC3)c(F)cc2c1=O` [CIPROFLOXACIN] it is 2 µg/mL (≈ 6.04 µM).

In a further assay the test system is Aspergillus flavus. Briefly: Antifungal activity against Aspergillus flavus ATCC 204304 after 24 hrs by micro broth dilution method. Format: functional. Conditions: ATCC 204304, 24 h.
Compound `CCCCCCn1c(CN2CCN(c3cc4c(cc3F)c(=O)c(C(=O)O)cn4CC)CC2)nc2ccccc21` returned an MIC80 of 128 µg/mL (≈ 240 µM).
Still for that read-out and setting: the figure for `OC(Cn1cncn1)(Cn1cncn1)c1ccc(F)cc1F` [FLUCONAZOLE] is 256 µg/mL (≈ 836 µM).

The next assay concerns Candida albicans. Kind of assay: Antifungal activity against Candida albicans ATCC 10231 after 24 hrs by micro broth dilution method. In kind it is functional. Conditions: ATCC 10231, 24 h.
Compound `CCCCCCn1c(CN2CCN(c3cc4c(cc3F)c(=O)c(C(=O)O)cn4CC)CC2)nc2ccccc21` displayed an MIC80 of 16 µg/mL (≈ 30 µM).
In the case of `OC(Cn1cncn1)(Cn1cncn1)c1ccc(F)cc1F` [FLUCONAZOLE], the MIC80 was found to be 1 µg/mL (≈ 3.27 µM).

Another assay concerns Staphylococcus aureus. Briefly: Antibacterial activity against methicillin-resistant Staphylococcus aureus N315 by micro broth dilution method. Format: functional.
Settings: not given
Compound `CCCCCCn1c(CN2CCN(c3cc4c(cc3F)c(=O)c(C(=O)O)cn4CC)CC2)nc2ccccc21` showed an MIC of 32 µg/mL (≈ 60 µM).
The same measure, in the same setting: the figure for `NC1CCN(c2c(F)cc3c(=O)c(C(=O)O)cn(C4CC4)c3c2Cl)C1` (stereo not drawn) [CLINAFLOXACIN] is 1 µg/mL (≈ 2.73 µM); for `O=C(O)c1cn(C2CC2)c2cc(N3CCNCC3)c(F)cc2c1=O` [CIPROFLOXACIN] it is 2 µg/mL (≈ 6.04 µM).

Another assay relates to Micrococcus luteus. Briefly: Antibacterial activity against Micrococcus luteus ATCC 4698 by micro broth dilution method. Format: functional. The note with it: NCTC 2665.
`CCCCCCn1c(CN2CCN(c3cc4c(cc3F)c(=O)c(C(=O)O)cn4CC)CC2)nc2ccccc21`: the MIC stood at 4 µg/mL (≈ 7.5 µM).
Consider `NC1CCN(c2c(F)cc3c(=O)c(C(=O)O)cn(C4CC4)c3c2Cl)C1` (stereo not drawn) [CLINAFLOXACIN], for which the MIC is 0.5 µg/mL (≈ 1.37 µM).
With `O=C(O)c1cn(C2CC2)c2cc(N3CCNCC3)c(F)cc2c1=O` [CIPROFLOXACIN], the MIC was found to be 2 µg/mL (≈ 6.04 µM).

The test system of another assay is Escherichia coli. Briefly: Antibacterial activity against Escherichia coli DH52 by micro broth dilution method.
Settings: not given
In kind it is functional.
Regarding `CCCCCCn1c(CN2CCN(c3cc4c(cc3F)c(=O)c(C(=O)O)cn4CC)CC2)nc2ccccc21`, the MIC was determined as 4 µg/mL (≈ 7.5 µM).
On the same count and under the same terms, the figure for `NC1CCN(c2c(F)cc3c(=O)c(C(=O)O)cn(C4CC4)c3c2Cl)C1` (stereo not drawn) [CLINAFLOXACIN] is 0.5 µg/mL (≈ 1.37 µM).

The subject of the next assay is Pseudomonas aeruginosa. Briefly: Antibacterial activity against Pseudomonas aeruginosa ATCC 27853 by micro broth dilution method. Format: functional.
Settings: not given
The compound `CCCCCCn1c(CN2CCN(c3cc4c(cc3F)c(=O)c(C(=O)O)cn4CC)CC2)nc2ccccc21` had an MIC of 16 µg/mL (≈ 30 µM).
On the same count and under the same terms, the figure for `NC1CCN(c2c(F)cc3c(=O)c(C(=O)O)cn(C4CC4)c3c2Cl)C1` (stereo not drawn) [CLINAFLOXACIN] is 0.5 µg/mL (≈ 1.37 µM); for `O=C(O)c1cn(C2CC2)c2cc(N3CCNCC3)c(F)cc2c1=O` [CIPROFLOXACIN] it is 1 µg/mL (≈ 3.02 µM).

Another assay deals with Saccharomyces cerevisiae. Kind of assay: Antifungal activity against Saccharomyces cerevisiae ATCC 9763 after 24 hrs by micro broth dilution method. Format: functional. The note with it: ATCC 9763, 24 h.
`CCCCCCn1c(CN2CCN(c3cc4c(cc3F)c(=O)c(C(=O)O)cn4CC)CC2)nc2ccccc21` registered an MIC80 of 128 µg/mL (≈ 240 µM).
The compound `OC(Cn1cncn1)(Cn1cncn1)c1ccc(F)cc1F` [FLUCONAZOLE] gave an MIC80 of 16 µg/mL (≈ 52.2 µM).
